Source: PubChem BioAssay AID588827 (Broad Institute, 2011)
Results filed as inconclusive are left out.

Test system: NIH3T3 R4 HSF-1 GFP reporter, heat shock, 48 h
Test: GFP reporter loss versus dox-driven RFP – NIH3T3 R4 cells, cherry-pick, set 4, dose response (AID 588827)

Going from `CCc1ccc(C2=NNC(=Nc3cccc(S(=O)(=O)N(C)C)c3)SC2)cc1` to `COc1ccccc1-c1cc(C(F)(F)F)nc(S(=O)(=O)CCCC(=O)NCc2ccc(F)cc2)n1`, the AC50 falls from 15.7 µM to 5.26 µM (3-fold).

Going from `C=C(C)C(=O)O[C@H]1C/C(C)=C\C(=O)/C=C(\C)[C@H](O)[C@@H]2OC(=O)C(=C)[C@@H]21` to `CCOC(=O)c1c(C)[nH]c2c1-c1ccccc1C(=O)C2=O`, the AC50 falls from 12.9 µM to 1.23 µM (10-fold).

Compared with `CC12CCC(C/C1=N\N=C1\NC(=O)/C(=C\c3ccc(Cl)cc3)S1)C2(C)C` (stereo not given), `CC(C)(C)c1ccc2c(c1)OC(C(=O)N/N=C\c1ccc[nH]1)CO2` (stereo not given) is 4.1-fold lower in AC50: 2.11 µM for the first, 0.515 µM for the second.

Going from `C(=N\NC1=Nc2cccc3cccc1c23)/c1ccccn1` to `O=C(CCl)Nc1cn(-c2ccccc2)nc1-c1ccc(F)cc1`, the AC50 falls from 19.2 µM to 5.2 µM (3.7-fold).

Compared with `CCOC(=O)Cc1nnc2c(Nc3ccccc3F)nc3nonc3n12`, `Cc1ccc(NC2=C/C(=N\S(=O)(=O)c3cccs3)c3ccccc3C2=O)c(C)c1` is 5.2-fold lower in AC50: 7.38 µM for the first, 1.42 µM for the second.

`Cc1cc([N+](=O)[O-])c2ccccc2[n+]1[O-]` and `Cn1c(=O)c([N+](=O)[O-])c(Cl)c2ccccc21` are within 1.5-fold of each other in AC50: 11 µM for the first, 14.2 µM for the second.

Compared with `O=S(=O)(c1ccc2c(c1)C(=NO)c1cc(S(=O)(=O)N3CCCCC3)ccc1-2)N1CCCCC1`, `O=C(CCl)N(c1ccccc1)C1CCCCC1` is 2.1-fold higher in AC50: 2.49 µM for the first, 5.18 µM for the second.

`COc1ccc(C[C@H]2NC[C@H](O)[C@H]2OC(C)=O)cc1` was tested, and the AC50 was 0.361 µM.
